Active and inactive are the calls of the source. The rule behind the calls is not given here.
Legend:
[1] = target: Tubulin (Bos taurus) (UniProt Q6B856+Q862F3); experiment: Inhibition of bovine brain tubulin polymerization assessed as increase in fluorescence intensity at 5 uM relative to control
[2] = test system: MCF7; experiment: Cytotoxicity against human MCF7 cells assessed as cell viability by SRB assay; format: functional, cell-based
[3] = test system: A549; experiment: Cytotoxicity against human A549 cells assessed as cell viability by SRB assay; format: functional, cell-based
[4] = test system: HeLa; experiment: Cytotoxicity against human HeLa cells assessed as cell viability by SRB assay; format: functional, cell-based
[5] = test system: SK-N-SH; experiment: Cytotoxicity against human SK-N-SH cells assessed as cell viability by SRB assay; format: functional, cell-based
[6] = test system: A549; experiment: Induction of cell cycle arrest in human A549 cells assessed as accumulation at G0 phase at 5 uM after 24 hrs by flow cytometry; format: functional
[7] = test system: A549; experiment: Induction of cell cycle arrest in human A549 cells assessed as accumulation at G2/M phase at 5 uM after 24 hrs by flow cytometry; format: functional
[8] = test system: A549; experiment: Induction of cell cycle arrest in human A549 cells assessed as accumulation at G1 phase at 5 uM after 24 hrs by flow cytometry; format: functional
[9] = test system: A549; experiment: Induction of cell cycle arrest in human A549 cells assessed as accumulation at S phase at 5 uM after 24 hrs by flow cytometry; format: functional
[10] = test system: A549; experiment: Antimitotic activity against human A549 cells at 5 uM after 12 hrs by flow cytometry; format: functional, cell-based

SMILES	inhibition [1] [%]	IC50 [2] [µM]	IC50 [3] [µM]	IC50 [4] [µM]	IC50 [5] [µM]	Activity [6] [%]	Activity [7] [%]	Activity [8] [%]	Activity [9] [%]	Activity [10]
COc1cc([C@@H]2c3cc4c(cc3[C@@H](n3nnnc3C(=O)OCc3ccccc3)[C@H]3COC(=O)[C@H]23)OCO4)cc(OC)c1OC	57.5	4.85	2.48	4.01	4.58	10.28	65.34	17.77	6.61	
CC(=O)O[C@H]1C(=O)[C@@]2(C)[C@H]([C@H](OC(=O)c3ccccc3)[C@]3(O)C[C@H](OC(=O)[C@H](O)[C@@H](NC(=O)c4ccccc4)c4ccccc4)C(C)=C1C3(C)C)[C@]1(OC(C)=O)CO[C@@H]1C[C@@H]2O [PACLITAXEL]						9.81	70.48	13.7	6.01	
COc1cccc2c1C(=O)c1c(O)c3c(c(O)c1C2=O)C[C@@](O)(C(=O)CO)C[C@@H]3O[C@H]1C[C@H](N)[C@H](O)[C@H](C)O1 [DOXORUBICIN]		12.3	6.13	10.8	7.36					
CCOC(=O)c1nnnn1[C@@H]1c2cc3c(cc2[C@@H](c2cc(OC)c(OC)c(OC)c2)[C@H]2C(=O)OC[C@@H]21)OCO3	99.2	7.47	2.4	4.76	3.61	12.44	65.6	16.44	5.52	
COc1cc([C@@H]2c3cc4c(cc3[C@@H](n3nnnc3C(=O)c3ccccc3)[C@H]3COC(=O)[C@H]23)OCO4)cc(OC)c1OC	72.5	6.89	4.29	4.76	4.68	11.01	69.37	13.88	5.73	
COC(=O)Nc1nc2ccc(C(=O)c3cccs3)cc2n1C	65.3									
COc1cc([C@@H]2c3cc4c(cc3[C@@H](n3nnnc3S(=O)(=O)c3ccc(C)cc3)[C@H]3COC(=O)[C@H]23)OCO4)cc(OC)c1OC	0.73	6.99	2.89	3.15	5.31	19.96	54.73	20.09	5.22	Active
COc1cc([C@@H]2c3cc4c(cc3[C@@H](n3nnnc3C(=O)OCc3ccccc3)[C@H]3COC(=O)[C@H]23)OCO4)cc(OC)c1O	29.8	9.44	2.98	4.77	6.16	8.61	63.19	19.95	8.25	
COc1cc([C@@H]2c3cc4c(cc3[C@@H](n3nnnc3C(=O)c3ccccc3)[C@H]3COC(=O)[C@H]23)OCO4)cc(OC)c1O	11.5	7.02	2.71	3.61	3.49	9.66	63.93	19.89	6.49	Active
COC(=O)c1nnnn1[C@@H]1c2cc3c(cc2[C@@H](c2cc(OC)c(O)c(OC)c2)[C@H]2C(=O)OC[C@@H]21)OCO3	28.3	5.27	2.44	3.95	5.64	9.96	68.48	15.18	6.38	
COC(=O)c1nnnn1[C@@H]1c2cc3c(cc2[C@@H](c2cc(OC)c(OC)c(OC)c2)[C@H]2C(=O)OC[C@@H]21)OCO3	12.4	6.97	3.11	5.25	6.5	19.92	45.43	30.01	4.61	Active
CCOC(=O)c1nnnn1[C@@H]1c2cc3c(cc2[C@@H](c2cc(OC)c(O)c(OC)c2)[C@H]2C(=O)OC[C@@H]21)OCO3	2.68	12.4	6.49	29.1	25.9	7.3	74.86	11.83	6	Active
COc1cc([C@@H]2c3cc4c(cc3[C@@H](n3nnnc3S(=O)(=O)c3ccc(C)cc3)[C@H]3COC(=O)[C@H]23)OCO4)cc(OC)c1O	22.5	5.29	3.29	3.05	3.44	11	62.48	19.28	7.28	
COc1cc([C@@H]2c3cc4c(cc3[C@H](O)[C@H]3COC(=O)[C@H]23)OCO4)cc(OC)c1OC [PODOFILOX]	93.9	3.34	2.55	1.92	7.92	9.48	60.77	19.71	10.03	

— ChEMBL document CHEMBL3588786, “Synthesis and Biological evaluation of novel 4β-[(5-substituted)-1,2,3,4-tetrazolyl] podophyllotoxins as anticancer compounds” (Bioorg Med Chem Lett, 2015)
